Source: PubChem BioAssay (NCI)
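Exposure lasted 48 hours, with cells grown in 96-well plates and compounds tested at five concentrations. TGI: concentration producing complete growth inhibition.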

What was measured:
Test in all cases: NCI anticancer screen, dose series, 48 h
[1] = tested on: 786-0 renal
[2] = tested on: A498 renal
[3] = tested on: A549 NSCLC
[4] = tested on: ACHN renal
[5] = tested on: CAKI-1 renal
[6] = tested on: CCRF-CEM leukemia
[7] = tested on: DLD-1 colon
[8] = tested on: DMS 114 small cell lung
[9] = tested on: DMS 273 small cell lung
[10] = tested on: EKVX NSCLC
[11] = tested on: HCC-2998 colon
[12] = tested on: HCT-116 colon
[13] = tested on: HCT-15 colon
[14] = tested on: HL-60(TB) leukemia
[15] = tested on: HOP-18 NSCLC
[16] = tested on: HOP-62 NSCLC
[17] = tested on: HOP-92 NSCLC
[18] = tested on: HT29 colon
[19] = tested on: IGROV1 ovarian
[20] = tested on: K-562 leukemia
[21] = tested on: KM12 colon
[22] = tested on: KM20L2 colon
[23] = tested on: LOX IMVI melanoma
[24] = tested on: LXFL 529 NSCLC
[25] = tested on: M14 melanoma
[26] = tested on: M19-MEL melanoma
[27] = tested on: MOLT-4 leukemia
[28] = tested on: NCI-H23 lung
[29] = tested on: NCI-H460 lung
[30] = tested on: NCI-H522 lung
[31] = tested on: OVCAR-3 ovarian
[32] = tested on: OVCAR-4 ovarian
[33] = tested on: OVCAR-5 ovarian
[34] = tested on: OVCAR-8 ovarian
[35] = tested on: RPMI-8226 leukemia
[36] = tested on: RXF 393 renal
[37] = tested on: SF-268 CNS
[38] = tested on: SF-295 CNS
[39] = tested on: SF-539 CNS
[40] = tested on: SK-MEL-28 melanoma
[41] = tested on: SK-MEL-5 melanoma
[42] = tested on: SK-OV-3 ovarian
[43] = tested on: SN12C renal
[44] = tested on: SNB-19 CNS
[45] = tested on: SNB-75 CNS
[46] = tested on: SNB-78 CNS
[47] = tested on: SR leukemia
[48] = tested on: SW-620 colon
[49] = tested on: TK-10 renal
[50] = tested on: U251 CNS
[51] = tested on: UACC-257 melanoma
[52] = tested on: UACC-62 melanoma
[53] = tested on: UO-31 renal
[54] = tested on: XF 498 CNS
[55] = tested on: RXF-631 renal
[56] = tested on: COLO 205 colon
[57] = tested on: MALME-3M melanoma
[58] = tested on: NCI-H226 lung
[59] = tested on: SK-MEL-2 melanoma

`O=C(/C=C/c1ccc([N+](=O)[O-])o1)N1CCN(Cc2ccccc2)CC1` gave a TGI [1] of 26.1 µM, a TGI [2] of 29.2 µM and a TGI [3] of 35.2 µM. For the same compound, the TGI [4] was 28.3 µM, the TGI [5] was 21.7 µM and the TGI [6] was 27.4 µM. For the same compound, the TGI [7] was 19.7 µM, the TGI [8] was 27.4 µM and the TGI [9] was 24 µM. The TGI [10] was 38.2 µM, the TGI [11] was 29.3 µM and the TGI [12] was 22.7 µM. It also gave a TGI [13] of 15.9 µM, a TGI [14] of 18.4 µM and a TGI [15] of 37.1 µM. The TGI [16] was 34.6 µM, the TGI [17] was 27.8 µM and the TGI [18] was 31.5 µM. It also gave a TGI [19] of 32.1 µM, a TGI [20] of 26.2 µM and a TGI [21] of 27.1 µM. For the same compound, the TGI [22] was 24.3 µM, the TGI [23] was 26.6 µM and the TGI [24] was 20.2 µM. It also gave a TGI [25] of 16.7 µM, a TGI [26] of 21.8 µM and a TGI [27] of 38.7 µM. For the same compound, the TGI [28] was 18.7 µM, the TGI [29] was 29.8 µM and the TGI [30] was 8.16 µM. The TGI [31] was 31.7 µM, the TGI [32] was 29.7 µM and the TGI [33] was 31.1 µM. For the same compound, the TGI [34] was 28.4 µM, the TGI [35] was 32.3 µM and the TGI [36] was 24.5 µM. The TGI [37] was 29.5 µM, the TGI [38] was 29.2 µM and the TGI [39] was 19.4 µM. It also gave a TGI [40] of 16.9 µM, a TGI [41] of 22.4 µM and a TGI [42] greater than 100 µM. It also gave a TGI [43] of 21.3 µM, a TGI [44] of 30.5 µM and a TGI [45] of 30.4 µM. It also gave a TGI [46] of 54.5 µM, a TGI [47] of 38.7 µM and a TGI [48] of 21.6 µM. The TGI [49] was 37.9 µM, the TGI [50] was 28.1 µM and the TGI [51] was 20.8 µM. The TGI [52] was 20.6 µM, the TGI [53] was 31.3 µM and the TGI [54] was 30.4 µM.

In the case of `CCN(CC)CSc1nc2ccccc2o1`, the TGI [2] is reported as greater than 100 µM, the TGI [3] is reported as greater than 100 µM and the TGI [4] is reported as greater than 100 µM. The TGI [6] was greater than 100 µM, the TGI [8] was greater than 100 µM and the TGI [9] was greater than 100 µM. For the same compound, the TGI [10] was greater than 100 µM, the TGI [12] was greater than 100 µM and the TGI [14] was greater than 100 µM. The TGI [16] was greater than 100 µM, the TGI [17] was greater than 100 µM and the TGI [18] was greater than 100 µM. It also gave a TGI [19] greater than 100 µM, a TGI [21] greater than 100 µM and a TGI [25] greater than 100 µM. The TGI [26] was greater than 100 µM, the TGI [27] was greater than 100 µM and the TGI [28] was greater than 100 µM. For the same compound, the TGI [29] was greater than 100 µM, the TGI [30] was greater than 100 µM and the TGI [33] was greater than 100 µM. For the same compound, the TGI [34] was greater than 100 µM, the TGI [36] was greater than 100 µM and the TGI [55] was greater than 100 µM. For the same compound, the TGI [38] was greater than 100 µM, the TGI [40] was greater than 100 µM and the TGI [42] was greater than 100 µM. It also gave a TGI [44] greater than 100 µM, a TGI [46] greater than 100 µM and a TGI [47] greater than 100 µM. The TGI [49] was greater than 100 µM, the TGI [50] was greater than 100 µM and the TGI [51] was greater than 100 µM. It also gave a TGI [52] greater than 100 µM and a TGI [53] greater than 100 µM.

Compound `CC(=O)c1cccc(N2COC(C)(C)c3nc4ccccc4n3C2)c1` has a TGI [1] greater than 100 µM, a TGI [2] greater than 100 µM and a TGI [3] greater than 100 µM. The TGI [4] was greater than 100 µM, the TGI [6] was greater than 100 µM and the TGI [56] was greater than 100 µM. For the same compound, the TGI [7] was greater than 100 µM, the TGI [8] was greater than 100 µM and the TGI [9] was greater than 100 µM. For the same compound, the TGI [10] was greater than 100 µM, the TGI [11] was greater than 100 µM and the TGI [12] was greater than 100 µM. The TGI [13] was greater than 100 µM, the TGI [14] was greater than 100 µM and the TGI [15] was greater than 100 µM. For the same compound, the TGI [16] was greater than 100 µM, the TGI [17] was greater than 100 µM and the TGI [18] was greater than 100 µM. For the same compound, the TGI [19] was greater than 100 µM, the TGI [20] was greater than 100 µM and the TGI [21] was greater than 100 µM. The TGI [22] was greater than 100 µM, the TGI [23] was greater than 100 µM and the TGI [24] was greater than 100 µM. For the same compound, the TGI [25] was greater than 100 µM, the TGI [26] was greater than 100 µM and the TGI [57] was greater than 100 µM. The TGI [27] was greater than 100 µM, the TGI [58] was greater than 100 µM and the TGI [28] was greater than 100 µM. The TGI [29] was greater than 100 µM, the TGI [30] was greater than 100 µM and the TGI [31] was greater than 100 µM. For the same compound, the TGI [32] was greater than 100 µM, the TGI [34] was greater than 100 µM and the TGI [35] was greater than 100 µM. It also gave a TGI [36] greater than 100 µM, a TGI [37] greater than 100 µM and a TGI [38] greater than 100 µM. It also gave a TGI [39] greater than 100 µM, a TGI [59] greater than 100 µM and a TGI [40] greater than 100 µM. It also gave a TGI [42] greater than 100 µM, a TGI [43] greater than 100 µM and a TGI [44] greater than 100 µM. The TGI [45] was greater than 100 µM, the TGI [46] was greater than 100 µM and the TGI [47] was greater than 100 µM. It also gave a TGI [48] greater than 100 µM, a TGI [49] greater than 100 µM and a TGI [50] greater than 100 µM. It also gave a TGI [51] greater than 100 µM, a TGI [52] greater than 100 µM and a TGI [53] greater than 100 µM. The TGI [54] was greater than 100 µM.

`O=C(Nc1ccc(Cl)cc1Cl)C(=O)Nn1c(=S)[nH]c2ccccc2c1=O` showed a TGI [1] greater than 100 µM, a TGI [3] greater than 100 µM and a TGI [6] greater than 100 µM. For the same compound, the TGI [8] was greater than 100 µM, the TGI [9] was greater than 100 µM and the TGI [11] was greater than 100 µM. For the same compound, the TGI [12] was greater than 100 µM, the TGI [13] was greater than 100 µM and the TGI [14] was greater than 100 µM. For the same compound, the TGI [15] was greater than 100 µM, the TGI [20] was greater than 100 µM and the TGI [24] was greater than 100 µM. It also gave a TGI [25] greater than 100 µM, a TGI [26] greater than 100 µM and a TGI [57] greater than 100 µM. The TGI [27] was greater than 100 µM, the TGI [29] was greater than 100 µM and the TGI [30] was greater than 100 µM. The TGI [31] was greater than 100 µM, the TGI [35] was greater than 100 µM and the TGI [36] was greater than 100 µM. It also gave a TGI [55] greater than 100 µM, a TGI [37] greater than 100 µM and a TGI [59] greater than 100 µM. For the same compound, the TGI [40] was greater than 100 µM, the TGI [42] was greater than 100 µM and the TGI [46] was greater than 100 µM. It also gave a TGI [47] greater than 100 µM, a TGI [50] greater than 100 µM and a TGI [53] greater than 100 µM.

`O=[N+]([O-])c1cccc(/C=N\NS(=O)(=O)c2ccc(Cl)cc2)c1O` gave a TGI [1] greater than 100 µM, a TGI [2] greater than 100 µM and a TGI [3] greater than 100 µM. For the same compound, the TGI [4] was greater than 100 µM, the TGI [5] was greater than 100 µM and the TGI [6] was greater than 100 µM. For the same compound, the TGI [56] was greater than 100 µM, the TGI [7] was greater than 100 µM and the TGI [9] was greater than 100 µM. It also gave a TGI [10] greater than 100 µM, a TGI [11] greater than 100 µM and a TGI [12] greater than 100 µM. It also gave a TGI [13] greater than 100 µM, a TGI [14] greater than 100 µM and a TGI [15] greater than 100 µM. The TGI [16] was greater than 100 µM, the TGI [17] was greater than 100 µM and the TGI [18] was greater than 100 µM. For the same compound, the TGI [19] was greater than 100 µM, the TGI [20] was greater than 100 µM and the TGI [21] was greater than 100 µM. For the same compound, the TGI [22] was greater than 100 µM, the TGI [23] was greater than 100 µM and the TGI [24] was greater than 100 µM. For the same compound, the TGI [25] was greater than 100 µM, the TGI [26] was greater than 100 µM and the TGI [57] was greater than 100 µM. For the same compound, the TGI [27] was greater than 100 µM, the TGI [28] was greater than 100 µM and the TGI [29] was greater than 100 µM. It also gave a TGI [30] greater than 100 µM, a TGI [31] greater than 100 µM and a TGI [32] greater than 100 µM. For the same compound, the TGI [33] was greater than 100 µM, the TGI [34] was greater than 100 µM and the TGI [35] was greater than 100 µM. The TGI [36] was greater than 100 µM, the TGI [55] was greater than 100 µM and the TGI [37] was greater than 100 µM. The TGI [38] was greater than 100 µM, the TGI [39] was greater than 100 µM and the TGI [59] was greater than 100 µM. For the same compound, the TGI [40] was greater than 100 µM, the TGI [41] was greater than 100 µM and the TGI [42] was greater than 100 µM. The TGI [43] was greater than 100 µM, the TGI [44] was greater than 100 µM and the TGI [45] was greater than 100 µM. It also gave a TGI [46] greater than 100 µM, a TGI [47] of 60.5 µM and a TGI [48] greater than 100 µM. The TGI [49] was greater than 100 µM, the TGI [50] was greater than 100 µM and the TGI [51] was greater than 100 µM. For the same compound, the TGI [52] was greater than 100 µM and the TGI [53] was greater than 100 µM.
